Laboratory results: the supplement of paper PMC13207355

Experiments:
Conditions in all cases: exposure time: 72 h
[1] = test system: E31 (patient-derived glioblastoma stem cells of proneural subtype); assay: phenotypic distance (Euclidean, principal components) from DMSO controls (arbitrary units); higher = stronger morphological change
[2] = test system: E57 (patient-derived glioblastoma stem cells of mesenchymal subtype); assay: as above
[3] = test system: E21 (patient-derived glioblastoma stem cells of mesenchymal subtype); assay: as above
[4] = test system: E34 (patient-derived glioblastoma stem cells of proneural subtype); assay: as above
[5] = test system: E28 (patient-derived glioblastoma stem cells of classical subtype); assay: as above
[6] = test system: E13 (patient-derived glioblastoma stem cells of classical subtype); assay: as above
[7] = test system: FT3469 (normal neural stem cell line); assay: as above
[8] = test system: E31; assay: surviving fraction (nuclei count normalised to DMSO); higher = more cells surviving (less toxic)
[9] = test system: E57; assay: as above
[10] = test system: E21; assay: as above
[11] = test system: E34; assay: as above
[12] = test system: E28; assay: as above
[13] = test system: E13; assay: as above
[14] = test system: FT3469; assay: as above
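Throughout, for phenotypic distance (Euclidean, principal components) from DMSO controls: cell Painting imaging in 384-well plates, CellProfiler features reduced to at least 20 principal components, Euclidean distance versus same-plate DMSO vehicle wells (0.1% v/v), median over six images per well.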
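Throughout, for surviving fraction (nuclei count normalised to DMSO): nuclei counted by high-content imaging of Hoechst-stained cells in laminin-coated 384-well plates, relative to 0.1% DMSO vehicle wells, with staurosporine as cell-death control.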

CC(C)(Oc1ccc(C2CC2(Cl)Cl)cc1)C(=O)O (centres undefined) [Ciprofibrate]
Conditions	phenotypic distance	surviving fraction
[1], 4.1 nM	0.865	–
[1], 12.3 nM	0.469	–
[1], 37 nM	0.691	–
[1], 111.1 nM	0.704	–
[1], 333.3 nM	0.816	–
[1], 1000 nM	0.949	–
[1], 3000 nM	0.985	–
[2], 4.1 nM	0.79	–
[2], 12.3 nM	0.645	–
[2], 37 nM	0.985	–
[2], 111.1 nM	0.544	–
[2], 333.3 nM	0.513	–
[2], 1000 nM	5.6	–
[2], 3000 nM	0.728	–
[3], 4.1 nM	1.13	–
[3], 12.3 nM	1.12	–
[3], 37 nM	1.06	–
[3], 111.1 nM	0.721	–
[3], 333.3 nM	0.996	–
[3], 1000 nM	0.59	–
[3], 3000 nM	0.683	–
[4], 4.1 nM	0.978	–
[4], 12.3 nM	0.753	–
[4], 37 nM	0.669	–
[4], 111.1 nM	0.8	–
[4], 333.3 nM	0.886	–
[4], 1000 nM	0.675	–
[4], 3000 nM	1.09	–
[5], 4.1 nM	1.01	–
[5], 12.3 nM	0.813	–
[5], 37 nM	0.864	–
[5], 111.1 nM	0.823	–
[5], 333.3 nM	0.782	–
[5], 1000 nM	0.776	–
[5], 3000 nM	0.735	–
[6], 4.1 nM	0.888	–
[6], 12.3 nM	0.449	–
[6], 37 nM	0.462	–
[6], 111.1 nM	0.363	–
[6], 333.3 nM	0.62	–
[6], 1000 nM	0.655	–
[6], 3000 nM	0.745	–
[7], 4.1 nM	0.922	–
[7], 12.3 nM	0.62	–
[7], 37 nM	0.718	–
[7], 111.1 nM	0.814	–
[7], 333.3 nM	0.871	–
[7], 1000 nM	0.441	–
[7], 3000 nM	0.507	–
[8], 4.1 nM	–	1.18
[8], 12.3 nM	–	0.902
[8], 37 nM	–	0.955
[8], 111.1 nM	–	0.771
[8], 333.3 nM	–	1.06
[8], 1000 nM	–	0.889
[8], 3000 nM	–	1.06
[9], 4.1 nM	–	0.918
[9], 12.3 nM	–	1.04
[9], 37 nM	–	0.934
[9], 111.1 nM	–	0.991
[9], 333.3 nM	–	1.03
[9], 1000 nM	–	0.983
[9], 3000 nM	–	1.06
[10], 4.1 nM	–	0.982
[10], 12.3 nM	–	0.945
[10], 37 nM	–	0.898
[10], 111.1 nM	–	0.962
[10], 333.3 nM	–	0.951
[10], 1000 nM	–	1.01
[10], 3000 nM	–	0.986
[11], 4.1 nM	–	1.07
[11], 12.3 nM	–	0.868
[11], 37 nM	–	0.894
[11], 111.1 nM	–	0.945
[11], 333.3 nM	–	0.986
[11], 1000 nM	–	0.988
[11], 3000 nM	–	1.08
[12], 4.1 nM	–	1.06
[12], 12.3 nM	–	0.804
[12], 37 nM	–	1.11
[12], 111.1 nM	–	1.06
[12], 333.3 nM	–	1.12
[12], 1000 nM	–	1.02
[12], 3000 nM	–	1.31
[13], 4.1 nM	–	0.885
[13], 12.3 nM	–	0.896
[13], 37 nM	–	1.05
[13], 111.1 nM	–	0.961
[13], 333.3 nM	–	1.07
[13], 1000 nM	–	1.13
[13], 3000 nM	–	1
[14], 4.1 nM	–	0.859
[14], 12.3 nM	–	0.891
[14], 37 nM	–	0.979
[14], 111.1 nM	–	0.92
[14], 333.3 nM	–	0.926
[14], 1000 nM	–	0.886
[14], 3000 nM	–	0.947

COc1cc(N)c(Cl)cc1C(=O)NC1CCN(CCCOc2ccc(F)cc2)CC1OC (centres undefined) [Cisapride]
Conditions	phenotypic distance	surviving fraction
[1], 4.1 nM	0.443	–
[1], 12.3 nM	0.553	–
[1], 37 nM	0.533	–
[1], 111.1 nM	0.657	–
[1], 333.3 nM	0.557	–
[1], 1000 nM	0.668	–
[1], 3000 nM	0.804	–
[2], 4.1 nM	0.385	–
[2], 12.3 nM	0.606	–
[2], 37 nM	0.667	–
[2], 111.1 nM	0.47	–
[2], 333.3 nM	0.668	–
[2], 1000 nM	0.946	–
[2], 3000 nM	0.645	–
[3], 4.1 nM	0.524	–
[3], 12.3 nM	0.638	–
[3], 37 nM	0.752	–
[3], 111.1 nM	0.754	–
[3], 333.3 nM	0.818	–
[3], 1000 nM	0.872	–
[3], 3000 nM	1.14	–
[4], 4.1 nM	0.74	–
[4], 12.3 nM	0.611	–
[4], 37 nM	0.666	–
[4], 111.1 nM	0.904	–
[4], 333.3 nM	0.986	–
[4], 1000 nM	0.415	–
[4], 3000 nM	0.914	–
[5], 4.1 nM	0.867	–
[5], 12.3 nM	0.592	–
[5], 37 nM	0.923	–
[5], 111.1 nM	0.547	–
[5], 333.3 nM	1.1	–
[5], 1000 nM	0.901	–
[5], 3000 nM	1.01	–
[6], 4.1 nM	0.873	–
[6], 12.3 nM	0.288	–
[6], 37 nM	0.382	–
[6], 111.1 nM	0.383	–
[6], 333.3 nM	0.399	–
[6], 1000 nM	0.304	–
[6], 3000 nM	0.549	–
[7], 4.1 nM	1.16	–
[7], 12.3 nM	0.775	–
[7], 37 nM	1.12	–
[7], 111.1 nM	2.83	–
[7], 333.3 nM	0.576	–
[7], 1000 nM	1.05	–
[7], 3000 nM	0.797	–
[8], 4.1 nM	–	1.04
[8], 12.3 nM	–	1.01
[8], 37 nM	–	0.895
[8], 111.1 nM	–	1
[8], 333.3 nM	–	1.01
[8], 1000 nM	–	0.972
[8], 3000 nM	–	0.67
[9], 4.1 nM	–	0.957
[9], 12.3 nM	–	0.903
[9], 37 nM	–	1.05
[9], 111.1 nM	–	1.07
[9], 333.3 nM	–	0.967
[9], 1000 nM	–	1.04
[9], 3000 nM	–	0.918
[10], 4.1 nM	–	1.04
[10], 12.3 nM	–	1.03
[10], 37 nM	–	0.956
[10], 111.1 nM	–	1.08
[10], 333.3 nM	–	0.888
[10], 1000 nM	–	0.863
[10], 3000 nM	–	0.846
[11], 4.1 nM	–	1.06
[11], 12.3 nM	–	1.13
[11], 37 nM	–	0.945
[11], 111.1 nM	–	0.906
[11], 333.3 nM	–	1.02
[11], 1000 nM	–	0.971
[11], 3000 nM	–	1.06
[12], 4.1 nM	–	1.05
[12], 12.3 nM	–	1.04
[12], 37 nM	–	1.14
[12], 111.1 nM	–	0.921
[12], 333.3 nM	–	1.09
[12], 1000 nM	–	0.963
[12], 3000 nM	–	0.844
[13], 4.1 nM	–	1.06
[13], 12.3 nM	–	0.908
[13], 37 nM	–	0.927
[13], 111.1 nM	–	1
[13], 333.3 nM	–	0.996
[13], 1000 nM	–	0.958
[13], 3000 nM	–	0.907
[14], 4.1 nM	–	0.931
[14], 12.3 nM	–	1.1
[14], 37 nM	–	0.992
[14], 111.1 nM	–	1.06
[14], 333.3 nM	–	0.891
[14], 1000 nM	–	1.2
[14], 3000 nM	–	0.907

O=c1c2ccccc2[se]n1-c1ccccc1 [Ebselen]
Conditions	phenotypic distance	surviving fraction
[1], 4.11523 nM	0.71	–
[1], 12.34567901 nM	0.778	–
[1], 37.037 nM	0.875	–
[1], 111.1111111 nM	0.398	–
[1], 333.333 nM	0.33	–
[1], 1000 nM	0.763	–
[1], 3000 nM	3.3	–
[2], 4.11523 nM	0.316	–
[2], 12.34567901 nM	0.564	–
[2], 37.037 nM	0.5	–
[2], 111.1111111 nM	0.407	–
[2], 333.333 nM	0.482	–
[2], 1000 nM	1	–
[2], 3000 nM	4.42	–
[3], 4.11523 nM	0.63	–
[3], 12.34567901 nM	1.29	–
[3], 37.037 nM	0.667	–
[3], 111.1111111 nM	1.02	–
[3], 333.333 nM	0.791	–
[3], 1000 nM	0.556	–
[3], 3000 nM	1.89	–
[4], 4.11523 nM	0.415	–
[4], 12.34567901 nM	0.549	–
[4], 37.037 nM	0.806	–
[4], 111.1111111 nM	0.859	–
[4], 333.333 nM	0.532	–
[4], 1000 nM	1.03	–
[4], 3000 nM	1.91	–
[5], 4.11523 nM	0.754	–
[5], 12.34567901 nM	1.01	–
[5], 37.037 nM	0.601	–
[5], 111.1111111 nM	0.529	–
[5], 333.333 nM	0.764	–
[5], 1000 nM	0.79	–
[5], 3000 nM	2.56	–
[6], 4.11523 nM	0.891	–
[6], 12.34567901 nM	0.779	–
[6], 37.037 nM	0.477	–
[6], 111.1111111 nM	0.532	–
[6], 333.333 nM	0.51	–
[6], 1000 nM	0.854	–
[6], 3000 nM	1.59	–
[7], 4.11523 nM	0.678	–
[7], 12.34567901 nM	0.843	–
[7], 37.037 nM	0.785	–
[7], 111.1111111 nM	0.587	–
[7], 333.333 nM	1.06	–
[7], 1000 nM	0.639	–
[7], 3000 nM	4.47	–
[8], 4.11523 nM	–	0.993
[8], 12.34567901 nM	–	0.922
[8], 37.037 nM	–	1.2
[8], 111.1111111 nM	–	1.12
[8], 333.333 nM	–	1.13
[8], 1000 nM	–	0.905
[8], 3000 nM	–	0.127
[9], 4.11523 nM	–	1.04
[9], 12.34567901 nM	–	0.962
[9], 37.037 nM	–	1.01
[9], 111.1111111 nM	–	1.05
[9], 333.333 nM	–	0.995
[9], 1000 nM	–	1.04
[9], 3000 nM	–	0.343
[10], 4.11523 nM	–	1.06
[10], 12.34567901 nM	–	1.15
[10], 37.037 nM	–	1.11
[10], 111.1111111 nM	–	1.08
[10], 333.333 nM	–	1.1
[10], 1000 nM	–	1.14
[10], 3000 nM	–	0.582
[11], 4.11523 nM	–	0.901
[11], 12.34567901 nM	–	1.1
[11], 37.037 nM	–	0.955
[11], 111.1111111 nM	–	1
[11], 333.333 nM	–	1.04
[11], 1000 nM	–	1.05
[11], 3000 nM	–	0.512
[12], 4.11523 nM	–	0.974
[12], 12.34567901 nM	–	1.18
[12], 37.037 nM	–	1.14
[12], 111.1111111 nM	–	1.12
[12], 333.333 nM	–	1.15
[12], 1000 nM	–	1.1
[12], 3000 nM	–	0.0788
[13], 4.11523 nM	–	1.18
[13], 12.34567901 nM	–	1.04
[13], 37.037 nM	–	1.05
[13], 111.1111111 nM	–	1.07
[13], 333.333 nM	–	1.16
[13], 1000 nM	–	1.11
[13], 3000 nM	–	0.579
[14], 4.11523 nM	–	1.14
[14], 12.34567901 nM	–	1.14
[14], 37.037 nM	–	1.11
[14], 111.1111111 nM	–	1.15
[14], 333.333 nM	–	1.32
[14], 1000 nM	–	0.997
[14], 3000 nM	–	0.189
